Our source for the IC50 values is patent US5684034A, “1H-indole-3-acetamide sPLA2 inhibitors” (Eli Lilly and Company, priority 1995, dated 1997).

The structures appear in SMILES notation. Where only a bound is given, the exact number is not on record here.

In general, IC50 refers to the concentration needed to halve the response being measured.

One assay deals with T1, recombinant human secreted phospholipase A2 (Homo sapiens, UniProt P14555).
T1 sequence (P14555 21-144): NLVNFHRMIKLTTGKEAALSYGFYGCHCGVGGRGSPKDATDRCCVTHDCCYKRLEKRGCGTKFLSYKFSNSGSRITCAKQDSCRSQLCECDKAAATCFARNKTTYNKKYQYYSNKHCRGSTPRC
Put plainly: Human secreted phospholipase A2 inhibition test (chromogenic assay, diheptanoyl thio-PC substrate). The assay is classed as biochemical. The following applies: Inhibition of human secreted PLA2 IC50 ± mean deviation (3-5 tests), pH 7.5, 40° C., 30 minutes, 405 nm. The method, then:
The following chromogenic assay procedure was used to identify and evaluate inhibitors of recombinant human secreted phospholipase A2. The assay described herein has been adapted for high volume screening using 96 well microtiter plates.
A measured volume of racetic dipheptanoyl thio PC supplied in chloroform at a concentration of 100 mg/ml is taken to dryness and redissolved in 10 millimolar TRITON X-100™ nonionic detergent aqueous solution. Reaction Buffer is added to the solution, then DTNB to give the Reaction Mixture.
The reaction mixture thus obtained contains 1 mM diheptanoly thio-PC substrate, 0.29 mm Triton X-100™ detergent, and 0.12 mm DTMB in a buffered aqueous solution at pH 7.5.
1. Add 0.2 ml reaction mixture to all wells;
2. Add 10 ul test compound (or solvent blank) to appropriate wells, mix 20 seconds:
3. Add 50 nanograms of sPLA2 (10 microliters) to appropriate wells;
4. incubate plate at 40° C. for 30 minutes;
All compounds were tested in triplicate. […] Each sample was titrated in triplicate and result values were averaged for plotting and calculation of IC50 values. […] Each IC50 value was determined three times.
With `Cc1c(CC(N)=O)c2cc(O)ccc2n1Cc1ccccc1` [Example 2, 5-Hydroxy-2-methyl-1-(phenylmethyl)-1H-indole-3-acetamide], the IC50 is 0.84 ± 0.38 µM. `Cc1c(CC(N)=O)c2cc(OCC(=O)O)ccc2n1Cc1ccccc1` [Example 19, 2-[[3-(2-Amino-2-oxoethyl)-2-methyl-1-(phenylmethyl)-1H-indol-5-yl]oxy]acetic acid]: the IC50 was 1.16 ± 0.41 µM. As to `Cc1c(CC(N)=O)c2cc(OCCC(=O)O)ccc2n1Cc1ccccc1` [Example 21, 3-[[3-(2-Amino-2-oxoethyl)-2-methyl-1-(phenylmethyl)-1H-indol-5-yl]oxy]-propanic acid], the IC50 is 0.43 ± 0.23 µM. Consider `NC(=O)Cc1c(Cl)n(Cc2ccccc2)c2ccc(OCCCC(=O)O)cc12` [Example 24, 4-[[3-(2-Amino-2-oxoethyl)-2-chloro-1-(phenylmethyl)-1H-indole-5-yl]oxy]butanoic acid], for which the IC50 was 0.06 ± 0.02 µM. As for `Cc1c(CC(N)=O)c2cc(NCCC(=O)O)ccc2n1Cc1ccccc1` [Example 27, 3-[[3-(2-Amino-2-oxoethyl)-2-methyl-1-(phenylmethyl)-1H-indol-5-yl]amino]propanoic acid], the IC50 was found to be 3.3 ± 0.1 µM. On to `CCOC(=O)CCCCOc1ccc2c(CC(N)=O)c(C)n(Cc3ccccc3)c2c1` [Example 33, 5-[[3-(2-Amino-2-oxoethyl)-2-methyl-1-(phenylmethyl)-1H-indol-6-yl]oxy]pentanoic acid ethyl ester], for which the IC50 is 0.3 ± 0.12 µM.

For the compound `Cc1c(CC(N)=O)c2c(O)cccc2n1Cc1ccccc1` [Example 36, 4-Hydroxy-2-methyl-1-(phenylmethyl)-1H-indole-3-acetamide], the IC50 is 7.46 ± 1.66 µM. Turning to `CSc1c(CC(N)=O)c2cc(OCCCC(=O)O)ccc2n1Cc1ccccc1` [Example 46, 4-[[3-(2-Amino-2-oxoethyl)-2-(methylthio)-1-(phenylmethyl)-1H-indol-5-yl]oxy]butanoic acid], the IC50 was 0.16 ± 0.19 µM. `CSc1c(CC(N)=O)c2cc(OCCCC(N)=O)ccc2n1Cc1ccccc1` [Example 47, 5-(4-Amino-4-oxobutoxy)-2-(methylthio)-1-(phenylmethyl)-1H-indole-3-acetamide]: the IC50 is 0.09 ± 0.06 µM.

The assay is the same for the next values; noted with them: pH 7.5, 40° C., 30 minutes, 405 nm; read-out: Inhibition of human secreted PLA2 IC50 ± mean deviation (3-5 tests).
As to `Cc1ccc2c(CC(N)=O)c(C)n(Cc3ccccc3)c2c1` [Example 1, 2,6-Dimethyl-1-(phenylmethyl)-1H-indole-3-acetamide], the IC50 is 1.33 ± 0.45 µM. For `COc1ccc2c(c1)c(CC(N)=O)cn2Cc1ccccc1` [Example 3, 5-Methoxy-1-(phenylmethyl)-1H-indole-3-acetamide], the IC50 was 3.7 ± 2.82 µM. Turning to `COc1ccc2c(c1)c(CC(N)=O)c(C)n2Cc1c(Cl)cccc1Cl` [Example 6, 1-(2,6-Dichlorophenylmethyl)-5-methoxy-2-methyl-1H-indole-3-acetamide], the IC50 came out at 1.3 ± 0.29 µM. With `COc1ccc2c(c1)c(CC(N)=O)c(C)n2Cc1ccc(OCc2ccccc2)cc1` [Example 7, 1-[(4-Benzyloxyphenyl)methyl]-5-methoxy-2-methyl-1H-indole-3-acetamide], the 50% inhibitory concentration (IC50) was determined as 5.45 ± 1.62 µM. As to `COc1ccc2c(c1)c(CC(N)=O)c(C)n2Cc1ccccn1` [Example 8, 5-Methoxy-2-methyl-1-[(2-pyridyl)methyl]-1H-indole-3-acetamide], the IC50 was determined as 21.4 ± 8.55 µM. In the case of `CCCc1c(CC(N)=O)c2cc(OC)ccc2n1Cc1ccccc1` [Example 10, 5-Methoxy-1-(phenylmethyl)-2-propyl-1H-indole-3-acetamide], the IC50 was determined as 38.1 ± 2.82 µM. For the compound `COc1ccc2c(c1)c(CC(N)=O)c(Cl)n2Cc1ccccc1` [Example 11, 2-Chloro-5-methoxy-1-(phenylmethyl)-1H-indole-3-acetamide], the IC50 came out at 0.25 ± 0.03 µM. Same read-out and setting: the value for `Cc1c(CC(N)=O)c2cc(OCc3ccccc3)ccc2n1Cc1ccccc1` [Example 13, 5-Benzyloxy-2-methyl-1-(phenylmethyl)-1H-indole-3-acetamide] was 0.92 ± 0.24 µM. `CCCCCCCCCCn1c(C)c(CC(N)=O)c2cc(OC)ccc21` [Example 14, 1-Decyl-5-methoxy-2-methyl-1H-indole-3-acetamide]: the IC50 was 8.48 ± 5.25 µM. `Cc1c(CC(N)=O)c2cc(C(N)=O)ccc2n1Cc1ccccc1` [Example 15, 5-Aminocarbonyl-2-methyl-1-(phenylmethyl)-1H-indole-3-acetamide]: the IC50 turned out to be 1.51 ± 0.58 µM. With `Cc1c(CC(N)=O)c2cc(N)ccc2n1Cc1ccccc1` [Example 17, 5-Amino-2-methyl-1-(phenylmethyl)-1H-indole-3-acetamide], the IC50 worked out at 1.61 ± 0.44 µM. In the case of `COC(=O)CCOc1ccc2c(c1)c(CC(N)=O)c(C)n2Cc1ccccc1` [Example 20, 3-[[3-(2-Amino-2-oxoethyl)-2-methyl-1-(phenylmethyl)-1H-indol-5-yl]oxy]-propanic acid methyl ester], the half-inhibitory concentration (IC50) is 1.05 ± 0.11 µM. Same read-out and setting: the value for `COC(=O)CCNc1ccc2c(c1)c(CC(N)=O)c(C)n2Cc1ccccc1` [Example 25, 3-[[3-(2-Amino-2-oxoethyl)-2-methyl-1-(phenylmethyl)-1H-indol-5-yl]amino]propanoic acid methyl ester] was 3.34 ± 0.46 µM. Turning to `COC(=O)CCN(CCC(=O)OC)c1ccc2c(c1)c(CC(N)=O)c(C)n2Cc1ccccc1` [Example 26, 3,3'-[[3-(2-Amino-2-oxoethyl)-2-methyl-1-(phenylmethyl)-1H-indol-5-yl]imino]bis[propanoic acid]dimethyl ester], the IC50 came to 2.49 µM. Take `Cc1c(CC(N)=O)c2cc(NCCC(=O)NN)ccc2n1Cc1ccccc1` [Example 28, 3-[[3-(2-Amino-2-oxoethyl)-2-methyl-1-(phenylmethyl)-1H-indol-5-yl]amino]propanoic acid hydrazide]: the IC50 is 1.55 ± 0.93 µM.

On to `Cc1c(CC(N)=O)c2ccc(O)cc2n1Cc1ccccc1` [Example 30, 6-Hydroxy-2-methyl-1-(phenylmethyl)-1H-indole-3-acetamide], for which the IC50 came to 3.61 ± 0.75 µM. As to `CCOC(=O)CCCOc1ccc2c(CC(N)=O)c(C)n(Cc3ccccc3)c2c1` [Example 31, 4-[[3-(2-Amino-2-oxoethyl)-2-methyl-1-(phenylmethyl)-1H-indol-6-yl]oxy]butanoic acid ethyl ester], the IC50 was 0.45 ± 0.08 µM.

Regarding `Cc1c(CC(N)=O)c2ccc(OCCCC(=O)O)cc2n1Cc1ccccc1` [Example 32, 4-[[3-(2-Amino-2-oxoethyl)-2-methyl-1-(phenylmethyl)-1H-indol-6-yl]oxy]butanoic acid], the IC50 stood at 12.2 ± 0.55 µM. As for `Cc1c(CC(N)=O)c2ccc(OCCCCC(=O)O)cc2n1Cc1ccccc1` [Example 34, 5-[[3-(2-Amino-2-oxoethyl)-2-methyl-1-(phenylmethyl)-1H-indol-6-yl]oxy]pentanoic acid], the IC50 amounted to 7.96 ± 1.22 µM. The same measure, in the same setting: the value for `COc1cccc2c1c(CC(N)=O)c(C)n2Cc1ccccc1` [Example 35, 4-Methoxy-2-methyl-1-(phenylmethyl)-1H-indole-3-acetamide] was 2.36 ± 0.15 µM; that for `CCOC(=O)CCCOc1cccc2c1c(CC(N)=O)c(C)n2Cc1ccccc1` [Example 37, 4-[[3-(2-Amino-2-oxoethyl)-2-methyl-1-(phenylmethyl)-1H-indol-4-yl]oxy]butanoic acid ethyl ester] was 9.44 ± 1.44 µM. As for `COc1ccc2c(c1)c(CC(N)=O)c(Br)n2Cc1ccccc1` [Example 42, 2-Bromo-5-methoxy-1-(phenylmethyl)-1H-indole-3-acetamide], the 50% inhibitory concentration (IC50) was found to be 0.23 ± 0.06 µM.

With `NC(=O)Cc1c(Br)n(Cc2ccccc2)c2ccc(OCCCC(=O)O)cc12` [Example 43, 4-[[3-(2-Amino-2-oxoethyl)-2-bromo-1-(phenylmethyl)-1H-indol-5-yl]oxy]butanoic acid], the IC50 is 0.07 ± 0.03 µM. On to `CCOC(=O)CCCOc1ccc2c(c1)c(CC(N)=O)c(SC)n2Cc1ccccc1` [Example 45, 4-[[3-(2-Amino-2-oxoethyl)-2-(methylthio)-1-(phenylmethyl)-1H-indol-5-yl]oxy]butanoic acid ethyl ester], for which the IC50 amounted to 1.55 ± 0.51 µM. Consider `CCCCCCCCCCCCCCn1c(C)c(CC(N)=O)c2cc(OC)ccc21` [Example 48, 5-Methoxy-2-methyl-1-tetradecyl-1H-indole-3-acetamide], for which the IC50 is above 100 µM. With `CCCCCCCCCCCCCCn1c(C)c(CC(N)=O)c2cc(OCCCC(=O)O)ccc21` [Example 49], the IC50 amounted to 0.47 ± 0.05 µM. Turning to `CCCCCCn1c(C)c(CC(N)=O)c2cc(OCCCC(=O)O)ccc21` [Example 50], the IC50 stood at 2.47 ± 1.31 µM. Regarding `CCCCCCCCn1c(C)c(CC(N)=O)c2cc(OC)ccc21` [Example 51, 5-Methoxy-2-methyl-1-octyl-1H-indole-3-acetamide], the IC50 amounted to 8.28 ± 4.33 µM.

Staying with this assay, now noted: unit printed aM; pH 7.5, 40° C., 30 minutes, 405 nm; read-out: Inhibition of human secreted PLA2 IC50 ± mean deviation (3-5 tests).
For the compound `CSc1c(CC(N)=O)c2cc(O)ccc2n1Cc1ccccc1` [Example 44, 5-Hydroxy-2-(methylthio)-1-(phenylmethyl)-1H-indole-3-acetamide], the IC50 came to 0.38 ± 0.14 µM.

The assay is the same for the next values; noted with them: unit printed um; pH 7.5, 40° C., 30 minutes, 405 nm; read-out: Inhibition of human secreted PLA2 IC50 ± mean deviation (3-5 tests).
Take `COc1ccc2c(CC(N)=O)c(C)n(Cc3ccccc3)c2c1` [Example 29, 6-Methoxy-2-methyl-1-(phenylmethyl)-1H-indole-3-acetamide]: the IC50 was 1.23 ± 0.33 µM.
